What was measured:
Assay type in all cases: cell-based, human
Kato III cells [1] = test: Cell cycle analysis and cell growth, Kato III; details: for cell cycle arrest: Kato III pretreated for 4 days
Method: Kato III cells, a human gastric tumor cell line, was cultivated in RPMI 1640 medium (Invitrogen) containing 20% FCS (Perbio) and 2 mM Glutamax (Invitrogen) at 37°C and 5% CO2, with or without cytostatic compounds. 5-FU (Neofluor from NeoCorp AG) was tested at a concentration of 10 or 100 ng/ml, and oxaliplatin (Hospira) was tested at a concentration of 50 or 500 ng/ml. […] Cells were harvested with EDTA/trypsin, washed and analysed.
Cell cycle stages were determined based on measurement of cellular DNA content. This allows one to discriminate between cells in the G1-, S- or G2-phase of the cell cycle. In the S-phase DNA duplication occurs whereas in the G2-phase cells grow and prepare for mitosis. Cell cycle analysis was done using the CycleTEST PLUS DNA Reagent Kit from BD Biosciences following the manufacturer's protocol. Flow cytometry acquisition and analysis were performed by using BD FACS CantoII (BD Biosciences) and FlowJo (Tree Star) software.
Kato III cells were pretreated for 4 days with Irinotecan or Docetaxel and analysed for CLDN18.2 expression and cell cycle arrest.

Kato III cells [2] = test: Viable cells after 3 days pretreatment, Kato III; details: Kato III pretreated 3 days; Irinotecan 1000 ng/ml, Docetaxel 5 ng/ml, Cisplatin 2000 ng/ml; vs medium cultivated cells
Method: (§1) Peripheral blood mononuclear cells (PBMCs) including NK cells, monocytes, […] or other effector cells from healthy human donors were purified by Ficoll Hypaque density centrifugation. Washed effector cells were seeded in X-Vivo medium. Kato III cells which express CLDN18.2 endogenously and are of gastric origin were used as target cells in this setting. Target cells stably expressed luciferase, lucifer yellow, which is oxidized by viable cells only.

CLDN18.2 = CLDN18.2 expression after 3 days pretreatment, Kato III; details: Kato III pretreated 3 days; Irinotecan 1000 ng/ml, Docetaxel 5 ng/ml, Cisplatin 2000 ng/ml; vs medium cultivated cells
Kato III cells [3] = test: IMAB362 induced ADCC on chemotherapy pretreated Kato III; details: Kato III pretreated 3 days; Irinotecan 1000 ng/ml, Docetaxel 5 ng/ml, Cisplatin 2000 ng/ml
Method: as §1

SMILES	cell cycle phase distribution (Kato III cells [1]; Kato III, 5-FU 10 or 100 ng/ml, oxaliplatin 50 or 500 ng/ml, 96 hours)	level of viable cells (Kato III cells [2])	claudin18.2 expression (CLDN18.2)	potency of IMAB362 to induce ADCC (Kato III cells [3])	cell cycle arrest (Kato III cells [1])
O=c1[nH]cc(F)c(=O)[nH]1 [5-FU, 5-fluoro-1H-pyrimidine-2,4-dione]	blocked predominantly in the S-phase				
N.N.[Cl][Pt][Cl] [Cisplatin, cis-diamminedichloroplatinum(II)]		lower level of viable cells	increased	augmented	
CC(=O)O[C@@]12CO[C@@H]1C[C@H](O)[C@@]1(C)C(=O)[C@H](O)C3=C(C)[C@@H](OC(=O)[C@H](O)[C@@H](NC(=O)OC(C)(C)C)c4ccccc4)C[C@@](O)([C@@H](OC(=O)c4ccccc4)[C@H]21)C3(C)C [Docetaxel, 1,7β,10β-trihydroxy-9-oxo-5β,20-epoxytax-11-ene-2α,4,13α-triyl 4-acetate 2-benzoate 13-{(2R,3S)-3-[(tert-butoxycarbonyl)-amino]-2-hydroxy-3-phenylpropanoate}]		lower level of viable cells	increased	augmented	cell cycle arrest in the G2-phase
CCc1c2c(nc3ccc(OC(=O)N4CCC(N5CCCCC5)CC4)cc13)-c1cc3c(c(=O)n1C2)COC(=O)[C@]3(O)CC [Irinotecan, (S)-4,11-diethyl-3,4,12,14-tetrahydro-4-hydroxy-3,14-dioxo1H-pyrano[3',4':6,7]-indolizino[1,2-b]quinolin-9-yl-[1,4'-bipiperidine]-1'-carboxylate]		lower level of viable cells		augmented	cell cycle arrest in the S/G2-phase

From patent publication EP2958945B1, “COMBINATION THERAPY INVOLVING ANTIBODIES AGAINST CLAUDIN 18.2 FOR TREATMENT OF CANCER” (Astellas Pharma Inc., priority 2013, dated 2014)
